Test results reported in ChEMBL document CHEMBL1201862, “PubChem BioAssay data set” (2004).
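Cultured in 96-well plates, cells were exposed to test compound for 48 hours across five concentrations. Abbreviation: GI50, concentration required for 50% inhibition of growth.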 The source made the active and inactive calls. No stated cut-off is given here; in the data, active = GI50 up to about 1.1 µM and inactive = higher.

Legend:
Assay in all cases: growth of human tumour cells (NCI), 48 h
HCT-15 = tested on: HCT-15
UACC-257 = tested on: UACC-257
MOLT-4 = tested on: MOLT-4
SNB-75 = tested on: SNB-75
UACC-62 = tested on: UACC-62
SR = tested on: SR
A549 = tested on: A549
KM12 = tested on: KM12
NCI-H522 = tested on: NCI-H522
SF-268 = tested on: SF-268
NCI-H460 = tested on: NCI-H460
OVCAR-5 = tested on: OVCAR-5
HCT-116 = tested on: HCT-116
SK-MEL-2 = tested on: SK-MEL-2
EKVX = tested on: EKVX
SN12C = tested on: SN12C
U-251 = tested on: U-251
MDA-MB-435 = tested on: MDA-MB-435
CAKI-1 = tested on: CAKI-1
NCI/ADR-RES = tested on: NCI/ADR-RES
MDA-N = tested on: MDA-N
BT-549 = tested on: BT-549
TK-10 = tested on: TK-10
RPMI-8226 = tested on: RPMI-8226
SW-620 = tested on: SW-620
T47D = tested on: T47D
SK-MEL-28 = tested on: SK-MEL-28
OVCAR-4 = tested on: OVCAR-4
OVCAR-8 = tested on: OVCAR-8
OVCAR-3 = tested on: OVCAR-3
LOX IMVI = tested on: LOX IMVI
K562 = tested on: K562
SF-295 = tested on: SF-295
NCI-H226 = tested on: NCI-H226
DU-145 = tested on: DU-145
RXF 393 = tested on: RXF 393
HCC 2998 = tested on: HCC 2998
MCF7 = tested on: MCF7
SK-MEL-5 = tested on: SK-MEL-5
Malme-3M = tested on: Malme-3M
HL-60 = tested on: HL-60
NCI-H23 = tested on: NCI-H23
IGROV-1 = tested on: IGROV-1
HOP-92 = tested on: HOP-92
SK-OV-3 = tested on: SK-OV-3
M14 = tested on: M14
SNB-19 = tested on: SNB-19
PC-3 = tested on: PC-3
HT-29 = tested on: HT-29
HOP-62 = tested on: HOP-62
ACHN = tested on: ACHN
COLO 205 = tested on: COLO 205
UO-31 = tested on: UO-31
CCRF-CEM = tested on: CCRF-CEM
SF-539 = tested on: SF-539
Hs-578T = tested on: Hs-578T
A498 = tested on: A498
MDA-MB-231 = tested on: MDA-MB-231
786-0 = tested on: 786-0

`O=c1[nH]c(-c2ccc(Cl)cc2)cc2ccsc12` was tested, and the GI50 (HCT-15) was 2.26 µM, the GI50 (UACC-257) was 0.662 µM (active) and the GI50 (MOLT-4) was 3.78 µM (inactive). For the same molecule, the GI50 (SNB-75) was 3.66 µM (inactive), the GI50 (UACC-62) was 8.22 µM (inactive) and the GI50 (SR) was 0.506 µM (active). For the same molecule, the GI50 (A549) was 3.5 µM (inactive), the GI50 (KM12) was 3.21 µM (inactive) and the GI50 (NCI-H522) was 3.31 µM (inactive). The GI50 (SF-268) was 9.23 µM (inactive), the GI50 (NCI-H460) was 4.74 µM (inactive) and the GI50 (OVCAR-5) was 6.34 µM (inactive). For the same molecule, the GI50 (HCT-116) was 3.3 µM (inactive), the GI50 (SK-MEL-2) was 3.21 µM (inactive) and the GI50 (EKVX) was 8.38 µM (inactive). The GI50 (SN12C) was 5.5 µM (inactive), the GI50 (U-251) was 3.14 µM (inactive) and the GI50 (MDA-MB-435) was 0.453 µM (active). For the same molecule, the GI50 (CAKI-1) was 2.52 µM (inactive), the GI50 (NCI/ADR-RES) was 3.56 µM (inactive) and the GI50 (MDA-N) was 1.58 µM (inactive). The GI50 (BT-549) was 4.82 µM (inactive), the GI50 (TK-10) was 2.82 µM (inactive) and the GI50 (RPMI-8226) was 3.1 µM (inactive). The GI50 (SW-620) was 4.69 µM (inactive), the GI50 (T47D) was 2.37 µM (inactive) and the GI50 (SK-MEL-28) was 5.15 µM (inactive). For the same molecule, the GI50 (OVCAR-4) was 23.3 µM (inactive), the GI50 (OVCAR-8) was 8.41 µM (inactive) and the GI50 (OVCAR-3) was 1.66 µM (inactive). The GI50 (LOX IMVI) was 4.36 µM (inactive), the GI50 (K562) was 5.16 µM (inactive) and the GI50 (SF-295) was 3.42 µM (inactive). The GI50 (NCI-H226) was > 100 µM (inactive), the GI50 (DU-145) was 2.05 µM (inactive) and the GI50 (RXF 393) was 12.2 µM (inactive). For the same molecule, the GI50 (HCC 2998) was 2.31 µM (inactive), the GI50 (MCF7) was 5.05 µM (inactive) and the GI50 (SK-MEL-5) was 4.41 µM (inactive). The GI50 (Malme-3M) was 1.2 µM (inactive), the GI50 (HL-60) was 2.94 µM (inactive) and the GI50 (NCI-H23) was 4.92 µM (inactive). The GI50 (IGROV-1) was 3.49 µM (inactive), the GI50 (HOP-92) was 10.6 µM (inactive) and the GI50 (SK-OV-3) was 4.9 µM (inactive). For the same molecule, the GI50 (M14) was 3.48 µM (inactive), the GI50 (SNB-19) was 2.49 µM (inactive) and the GI50 (PC-3) was 8.83 µM (inactive). For the same molecule, the GI50 (HT-29) was 4.07 µM (inactive), the GI50 (HOP-62) was 8.07 µM (inactive) and the GI50 (ACHN) was 6.03 µM (inactive). For the same molecule, the GI50 (COLO 205) was 9.82 µM (inactive) and the GI50 (UO-31) was 5.94 µM (inactive).

`O/N=C(\CC(O)(C(F)(F)F)C(F)(F)F)c1cccc(Cl)c1` was tested, and the GI50 (CCRF-CEM) was 19.8 µM (inactive), the GI50 (HCT-15) was 32.4 µM and the GI50 (UACC-257) was 35.6 µM (inactive). For the same molecule, the GI50 (MOLT-4) was 15.5 µM (inactive), the GI50 (SNB-75) was 18.2 µM (inactive) and the GI50 (UACC-62) was 38.9 µM (inactive). The GI50 (SR) was 45.3 µM (inactive), the GI50 (A549) was 35.9 µM (inactive) and the GI50 (KM12) was 34.8 µM (inactive). The GI50 (SF-539) was 28.6 µM (inactive), the GI50 (NCI-H522) was 30.5 µM (inactive) and the GI50 (NCI-H460) was 43.3 µM (inactive). For the same molecule, the GI50 (OVCAR-5) was 47.9 µM (inactive), the GI50 (HCT-116) was 37.4 µM (inactive) and the GI50 (SK-MEL-2) was 22.7 µM (inactive). For the same molecule, the GI50 (EKVX) was 22.2 µM (inactive), the GI50 (U-251) was 20.2 µM (inactive) and the GI50 (MDA-MB-435) was 25.8 µM (inactive). The GI50 (CAKI-1) was 21.5 µM (inactive), the GI50 (NCI/ADR-RES) was 38 µM (inactive) and the GI50 (MDA-N) was 37.3 µM (inactive). The GI50 (TK-10) was 22.3 µM (inactive), the GI50 (RPMI-8226) was 29.9 µM (inactive) and the GI50 (SW-620) was 37.8 µM (inactive). For the same molecule, the GI50 (T47D) was 32.7 µM (inactive), the GI50 (SK-MEL-28) was 41.1 µM (inactive) and the GI50 (OVCAR-4) was 34.5 µM (inactive). The GI50 (OVCAR-8) was 37.4 µM (inactive), the GI50 (OVCAR-3) was 19.8 µM (inactive) and the GI50 (Hs-578T) was 21.5 µM (inactive). For the same molecule, the GI50 (A498) was 34 µM (inactive), the GI50 (LOX IMVI) was 23 µM (inactive) and the GI50 (K562) was 30.2 µM (inactive). The GI50 (SF-295) was 38.7 µM (inactive), the GI50 (MDA-MB-231) was 22.5 µM (inactive) and the GI50 (NCI-H226) was 20.8 µM (inactive). For the same molecule, the GI50 (DU-145) was 40.6 µM (inactive), the GI50 (RXF 393) was 15.6 µM (inactive) and the GI50 (HCC 2998) was 60 µM (inactive). For the same molecule, the GI50 (MCF7) was 35 µM (inactive), the GI50 (SK-MEL-5) was 16.6 µM (inactive) and the GI50 (Malme-3M) was 33.7 µM (inactive). The GI50 (HL-60) was 23.5 µM (inactive), the GI50 (NCI-H23) was 20.5 µM (inactive) and the GI50 (IGROV-1) was 27.1 µM (inactive). The GI50 (HOP-92) was 23.1 µM (inactive), the GI50 (SK-OV-3) was 22.7 µM (inactive) and the GI50 (M14) was 22.8 µM (inactive). For the same molecule, the GI50 (PC-3) was 29.9 µM (inactive), the GI50 (HT-29) was 69.2 µM (inactive) and the GI50 (786-0) was 35.5 µM (inactive). The GI50 (ACHN) was 23.8 µM (inactive) and the GI50 (COLO 205) was 35.6 µM (inactive).

For `SC1=NC2=C(CSC/C2=C\c2ccccc2)C(c2ccccc2)N1` (stereo unspecified), the GI50 (CCRF-CEM) was 36.6 µM (inactive), the GI50 (HCT-15) was 41.7 µM and the GI50 (UACC-257) was 22.3 µM (inactive). The GI50 (MOLT-4) was 27.7 µM (inactive), the GI50 (UACC-62) was 27.9 µM (inactive) and the GI50 (SR) was 32.7 µM (inactive). The GI50 (A549) was 38.5 µM (inactive), the GI50 (KM12) was 41 µM (inactive) and the GI50 (SF-539) was 76.6 µM (inactive). The GI50 (NCI-H522) was 59.4 µM (inactive), the GI50 (SF-268) was 64.6 µM (inactive) and the GI50 (NCI-H460) was 33 µM (inactive). For the same molecule, the GI50 (OVCAR-5) was > 100 µM (inactive), the GI50 (HCT-116) was 29.5 µM (inactive) and the GI50 (SK-MEL-2) was 49.3 µM (inactive). For the same molecule, the GI50 (EKVX) was 45.5 µM (inactive), the GI50 (SN12C) was 38.1 µM (inactive) and the GI50 (U-251) was 35 µM (inactive). For the same molecule, the GI50 (CAKI-1) was > 100 µM (inactive), the GI50 (NCI/ADR-RES) was 47.5 µM (inactive) and the GI50 (MDA-N) was 31.3 µM (inactive). The GI50 (BT-549) was 26.2 µM (inactive), the GI50 (TK-10) was 61.8 µM (inactive) and the GI50 (RPMI-8226) was 35.2 µM (inactive). For the same molecule, the GI50 (SW-620) was 48.3 µM (inactive), the GI50 (T47D) was 56.4 µM (inactive) and the GI50 (SK-MEL-28) was > 100 µM (inactive). The GI50 (OVCAR-4) was > 100 µM (inactive), the GI50 (OVCAR-8) was 42.2 µM (inactive) and the GI50 (OVCAR-3) was > 100 µM (inactive). For the same molecule, the GI50 (LOX IMVI) was 38.1 µM (inactive), the GI50 (K562) was 30.3 µM (inactive) and the GI50 (SF-295) was 21.6 µM (inactive). For the same molecule, the GI50 (MDA-MB-231) was 45.1 µM (inactive), the GI50 (NCI-H226) was 56.4 µM (inactive) and the GI50 (DU-145) was 95.1 µM (inactive). The GI50 (RXF 393) was 27.9 µM (inactive), the GI50 (HCC 2998) was 42.5 µM (inactive) and the GI50 (MCF7) was 30.9 µM (inactive). For the same molecule, the GI50 (SK-MEL-5) was 12.1 µM (inactive), the GI50 (Malme-3M) was 28.6 µM (inactive) and the GI50 (HL-60) was 15.2 µM (inactive). For the same molecule, the GI50 (NCI-H23) was 31.9 µM (inactive), the GI50 (IGROV-1) was > 100 µM (inactive) and the GI50 (HOP-92) was 37.6 µM (inactive). The GI50 (SK-OV-3) was 92.7 µM (inactive), the GI50 (M14) was 54.1 µM (inactive) and the GI50 (SNB-19) was 39.6 µM (inactive). The GI50 (PC-3) was 34.4 µM (inactive), the GI50 (HT-29) was 32.6 µM (inactive) and the GI50 (786-0) was 34.2 µM (inactive). For the same molecule, the GI50 (HOP-62) was > 100 µM (inactive), the GI50 (ACHN) was 49.7 µM (inactive) and the GI50 (COLO 205) was 37.5 µM (inactive). The GI50 (UO-31) was 33.8 µM (inactive).
